Data taken from PubChem BioAssay (NCI).
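Following 48 hours of exposure in 96-well plates, responses at five concentrations were used to interpolate endpoints linearly. Abbreviation: GI50, concentration required for 50% inhibition of growth. Definition used: TGI = concentration required for complete inhibition of growth.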

What was measured:
Experiment in all cases: DTP human tumour cell line panel, 48 h
[1] = test system: K-562 leukemia
[2] = test system: DU-145 prostate
[3] = test system: NCI-H460 lung
[4] = test system: IGROV1 ovarian
[5] = test system: HCT-15 colon
[6] = test system: 786-0 renal
[7] = test system: NCI-H522 lung
[8] = test system: CCRF-CEM leukemia
[9] = test system: SF-268 CNS
[10] = test system: KM12 colon
[11] = test system: MDA-MB-435
[12] = test system: RPMI-8226 leukemia
[13] = test system: SK-OV-3 ovarian
[14] = test system: A549 NSCLC
[15] = test system: RXF 393 renal
[16] = test system: OVCAR-8 ovarian
[17] = test system: UO-31 renal
[18] = test system: SW-620 colon
[19] = test system: MALME-3M melanoma
[20] = test system: HCC-2998 colon
[21] = test system: SK-MEL-28 melanoma
[22] = test system: HL-60(TB) leukemia
[23] = test system: HOP-92 NSCLC
[24] = test system: U251 CNS
[25] = test system: BT-549 breast
[26] = test system: M14 melanoma
[27] = test system: SNB-19 CNS
[28] = test system: OVCAR-4 ovarian
[29] = test system: UACC-62 melanoma
[30] = test system: SK-MEL-2 melanoma
[31] = test system: MDA-MB-231 breast
[32] = test system: NCI/ADR-RES ovarian
[33] = test system: NCI-H23 lung
[34] = test system: CAKI-1 renal
[35] = test system: HOP-62 NSCLC
[36] = test system: SR leukemia
[37] = test system: SF-539 CNS
[38] = test system: HT29 colon
[39] = test system: COLO 205 colon
[40] = test system: HS 578T breast
[41] = test system: MCF7 breast
[42] = test system: UACC-257 melanoma
[43] = test system: TK-10 renal
[44] = test system: PC-3 prostate
[45] = test system: HCT-116 colon
[46] = test system: EKVX NSCLC
[47] = test system: NCI-H226 lung
[48] = test system: A498 renal
[49] = test system: MOLT-4 leukemia
[50] = test system: ACHN renal
[51] = test system: SN12C renal
[52] = test system: SNB-75 CNS
[53] = test system: OVCAR-5 ovarian
[54] = test system: SF-295 CNS
[55] = test system: T-47D breast

`O=c1oc2ccc(-c3ccc(F)cc3F)cc2c(=O)n1-c1cccc(C(F)(F)F)c1` showed a GI50 [1] of 1.63 µM, a TGI [1] of over 50 µM and a GI50 [2] of 2 µM. The TGI [2] was over 50 µM, the GI50 [3] was 1.53 µM and the TGI [3] was 5.77 µM. It also gave a GI50 [4] of 1.49 µM, a TGI [4] of 8.81 µM and a GI50 [5] of 1.53 µM. The TGI [5] was 5.6 µM, the GI50 [6] was 1.77 µM and the TGI [6] was 9.55 µM. The GI50 [7] was 1.42 µM, the TGI [7] was 6.02 µM and the GI50 [8] was 1.71 µM. The TGI [8] was 24.5 µM, the GI50 [9] was 1.55 µM and the TGI [9] was 12 µM. It also gave a GI50 [10] of 1.61 µM, a TGI [10] of 5.46 µM and a GI50 [11] of 1.58 µM. For the same molecule, the TGI [11] was 5.34 µM, the GI50 [12] was 1.03 µM and the TGI [12] was 3.13 µM. The GI50 [13] was 1.31 µM, the TGI [13] was 3.97 µM and the GI50 [14] was 1.68 µM. It also gave a TGI [14] of over 50 µM, a GI50 [15] of 1.28 µM and a TGI [15] of 3.93 µM. It also gave a GI50 [16] of 1.72 µM, a TGI [16] of over 50 µM and a GI50 [17] of 1.13 µM. For the same molecule, the TGI [17] was 4.92 µM, the GI50 [18] was 1.61 µM and the TGI [18] was 6.47 µM. For the same molecule, the GI50 [19] was 1.16 µM, the TGI [19] was 3.26 µM and the GI50 [20] was 1.6 µM. It also gave a TGI [20] of 6.24 µM, a GI50 [21] of 1.73 µM and a TGI [21] of 7.48 µM. The GI50 [22] was 1.1 µM, the TGI [22] was 2.89 µM and the GI50 [23] was 0.952 µM. For the same molecule, the TGI [23] was 2.78 µM, the GI50 [24] was 1.7 µM and the TGI [24] was over 50 µM. It also gave a GI50 [25] of 1.66 µM, a TGI [25] of 6.77 µM and a GI50 [26] of 1.71 µM. For the same molecule, the TGI [26] was 8.41 µM, the GI50 [27] was 1.79 µM and the TGI [27] was over 50 µM. It also gave a GI50 [28] of 1.61 µM, a TGI [28] of 40.1 µM and a GI50 [29] of 1.2 µM. The TGI [29] was 3.65 µM, the GI50 [30] was 1.21 µM and the TGI [30] was 3.37 µM. It also gave a GI50 [31] of 1.21 µM, a TGI [31] of 2.97 µM and a GI50 [32] of 1.27 µM. The TGI [32] was 3.96 µM, the GI50 [33] was 1.13 µM and the TGI [33] was 3.73 µM. The GI50 [34] was 1.02 µM, the TGI [34] was 2.99 µM and the GI50 [35] was 1.48 µM. The TGI [35] was 6.33 µM, the GI50 [36] was 1.64 µM and the TGI [36] was over 50 µM. The GI50 [37] was 1.59 µM, the TGI [37] was 6.45 µM and the GI50 [38] was 6.24 µM. For the same molecule, the TGI [38] was over 50 µM, the GI50 [39] was 5.91 µM and the TGI [39] was 14.4 µM. It also gave a GI50 [40] of 1.31 µM, a TGI [40] of 4.64 µM and a GI50 [41] of 1.29 µM. It also gave a TGI [41] of 4.79 µM, a GI50 [42] of 1.21 µM and a TGI [42] of 3.87 µM. It also gave a GI50 [43] of 2.25 µM, a TGI [43] of 12 µM and a GI50 [44] of 1.64 µM. It also gave a TGI [44] of 7.54 µM, a GI50 [45] of 1.55 µM and a TGI [45] of 5.85 µM. For the same molecule, the GI50 [46] was 1.18 µM, the TGI [46] was 4.64 µM and the GI50 [47] was 1.51 µM. The TGI [47] was 5.58 µM, the GI50 [48] was 0.902 µM and the TGI [48] was 2.38 µM. It also gave a GI50 [49] of 1.55 µM, a TGI [49] of 6.89 µM and a GI50 [50] of 1.39 µM. It also gave a TGI [50] of 4.26 µM, a GI50 [51] of 1.35 µM and a TGI [51] of 4.15 µM. For the same molecule, the GI50 [52] was 0.906 µM, the TGI [52] was 2.59 µM and the GI50 [53] was 1.55 µM. The TGI [53] was over 50 µM, the GI50 [54] was 1.23 µM and the TGI [54] was 3.34 µM. For the same molecule, the GI50 [55] was 1.3 µM and the TGI [55] was 4.13 µM.
